Tested on: human peripheral blood mononuclear cells
Test: TNFα release from LPS-stimulated human peripheral blood mononuclear cells (TNFα screen)
Type: cell-based
Settings: PBMC, 18 hours incubation, TNFα in supernatant by ELISA
Description: Venous blood is collected from healthy volunteers and the mononuclear cells purified by centrifugation through Histopaque (Ficoll) cushions. TNFα production from these cells is stimulated by addition of lipopolysaccharide. After 18 hours incubation in the presence of LPS, the cell supernatant is removed and the concentration of TNFα in the supernatant determined by ELISA. Addition of PDE4 inhibitors reduces the amount of TNFα produced. An IC50 is determined which is equal to the concentration of compound that gives 50% inhibition of TNFα production as compared to the LPS stimulated control wells.

SMILES | IC50 [nM]
O=C(N[C@H]1CC[C@@H](NC(=O)c2cccn3ccnc23)CC1)c1cc(F)cnc1Oc1ccc2c(c1)SCC2 [Example 1, Syn-imidazo[1,2-a]pyridine-8-carboxylic acid (4-{[2-(2,3-dihydro-benzo[b]thiophen-6-yloxy)-5-fluoro-pyridine-3-carbonyl]-amino}-cyclohexyl)-amide] | 0.6
Cc1ccc(C(=O)N[C@H]2CC[C@@H](NC(=O)c3cc(F)cnc3Oc3ccc4c(c3)SCC4)CC2)c(O)c1 [Example 3, Syn-2-(2,3-dihydro-benzo[b]thiophen-6-yloxy)-5-fluoro-N-[4-(2-hydroxy-4-methyl-benzoylamino)-cyclohexyl]-nicotinamide] | 0.8

— patent US7132435B2, “Compounds” (Pfizer Inc., priority 2003, dated 2006)
